Data from publication PMC5817008 (Analytical biochemistry, 2017).
Where two headings read alike, the source gives them in different places.

Tests used:
[1] = test system: Francisella tularensis subsp. novicida Utah 112; assay: microbe, parasite or virus in culture; type: cell-based; conditions: for EC50: read-out: EC50, growth inhibition
[2] = test system: Yersinia pestis subsp. A1122; conditions: read-out: EC50, growth inhibition; cited from earlier work
[3] = test system: Francisella tularensis subsp. novicida Utah 112; conditions: read-out: EC50, growth inhibition; cited from earlier work
[4] = test system: Yersinia pestis subsp. A1122; assay: microbe, parasite or virus in culture; type: cell-based
[5] = biological target: Y. pestis IspC (YpIspC) (Yersinia pestis, UniProt Q8ZH62); assay: biochemical; conditions: for remaining activity at 100 µM: read-out: % Residual Activity; for % Residual Activity: 100 µM
Chain of Y. pestis IspC (YpIspC) (Q8ZH62 whole entry, looked up): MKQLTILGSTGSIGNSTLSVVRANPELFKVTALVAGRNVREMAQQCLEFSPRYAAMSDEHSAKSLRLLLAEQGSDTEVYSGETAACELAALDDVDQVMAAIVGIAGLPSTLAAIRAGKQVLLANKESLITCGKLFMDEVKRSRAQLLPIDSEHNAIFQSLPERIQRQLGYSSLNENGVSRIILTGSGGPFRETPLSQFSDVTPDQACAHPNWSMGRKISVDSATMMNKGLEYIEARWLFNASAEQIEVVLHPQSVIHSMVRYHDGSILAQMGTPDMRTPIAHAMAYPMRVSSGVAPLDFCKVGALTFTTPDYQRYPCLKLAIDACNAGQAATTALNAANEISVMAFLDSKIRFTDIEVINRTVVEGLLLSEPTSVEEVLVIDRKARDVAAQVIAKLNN

[6] = literature search; cited from earlier work
[7] = test system: F. tularensis IspD (FtIspD); type: biochemical, Francisella tularensis
[8] = test system: CYP34A; conditions: direct competitive inhibitor; cited from earlier work
[9] = biological target: PI3K; conditions: competitive inhibitor; cited from earlier work
[10] = test system: JNK; conditions: cited from earlier work
[11] = test system: FtIspD; type: biochemical, Francisella tularensis
[12] = test system: FtIspD; type: biochemical, Francisella tularensis; remark: listed apart in the source
[13] = biological target: T1, YpIspC (Yersinia pestis, UniProt Q8ZH62); type: biochemical
T1 sequence (Q8ZH62 whole entry, looked up): as above

[14] = biological target: T2, E.coli IspD (EcIspD) (Escherichia coli, UniProt Q46893); assay: Secondary screen, cuvette-based assay with EcIspD; type: biochemical
T2 sequence (Q46893 1-236): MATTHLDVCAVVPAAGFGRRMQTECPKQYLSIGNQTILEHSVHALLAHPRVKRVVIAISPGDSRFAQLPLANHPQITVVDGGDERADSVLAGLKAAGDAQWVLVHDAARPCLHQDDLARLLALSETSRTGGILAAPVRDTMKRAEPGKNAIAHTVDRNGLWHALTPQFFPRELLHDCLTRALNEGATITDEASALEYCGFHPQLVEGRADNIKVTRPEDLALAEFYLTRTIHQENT

[15] = biological target: T1, YpIspC; type: biochemical; remark: listed apart in the source
[16] = Yersinia pestis, SUBSP.A1122, read-out: EC50, growth inhibition

C[C@]12C=CC(=O)C=C1CC[C@@H]1C2=CC[C@]2(C)[C@@H](C(=O)CN3CCN(c4cc(N5CCCC5)nc(N5CCCC5)n4)CC3)CC[C@@H]12.O=C(O)/C=C\C(=O)O [U-74389G maleate]
antibacterial activity in the quaternary screen [1]: failed to show significant antimicrobial activity

CC(=O)N(O)CCCP(=O)(O)O [FR900098]
EC50 [2]: 29 µM
EC50 [3]: 23 µM

Cc1cc(N)c2ccccc2[n+]1CCCCCCCCCC[n+]1c(C)cc(N)c2ccccc21.O.[Cl-].[Cl-] [Dequalinium chloride, 1,1′-Decamethylenebis(4-aminoquinaldinium) dichloride hydrate]
EC50 [4, 16]: > 100 µM
hit identification in the primary screen with YpIspC [5]: identified as inhibitors of IspC
antibacterial activity in the quaternary screen [1]: significantly inhibit bacterial growth
forming aggregates in solution [6]: forming aggregates in solution

O=C(Nc1cccc(C(=O)Nc2ccc(S(=O)(=O)O)c3cc(S(=O)(=O)O)cc(S(=O)(=O)O)c23)c1)Nc1cccc(C(=O)Nc2ccc(S(=O)(=O)O)c3cc(S(=O)(=O)O)cc(S(=O)(=O)O)c23)c1 [NF023]
antibacterial activity in the quaternary screen [1]: failed to show significant antimicrobial activity

O=c1c(O)c(-c2ccc(O)c(O)c2)oc2cc(O)cc(O)c12 [Quercetin]
FtIspD activity, % of the uninhibited control [7]: 4%
EC50 [4, 16]: < 50 µM
EC50 ([4]; read-out: EC50, growth inhibition): 29 µM
remaining activity at 100 µM [5]: 4.83%
inhibition at 100 µM ([5]; read-out: inhibition of the catalytic activity of YpIspC): > 95%
Ki [8]: 15.4 µM
residual growth [1]: less than 25%
EC50 ([1]; Francisella tularensis): < 50 µM
EC50 [1]: 36 µM
forming aggregates in solution [6]: forming aggregates in solution
Kd [9]: 0.28 µM
IC50 [10]: 1 µM

C[C@@H]1O[C@@H](Oc2c(-c3ccc(O)c(O)c3)oc3cc(O)cc(O)c3c2=O)[C@H](O)[C@H](O)[C@H]1O [Quercitrin]
remaining activity at 100 µM [5]: 78.2%

O=c1c(O[C@@H]2O[C@H](CO)[C@@H](O)[C@H](O)[C@H]2O)c(-c2ccc(O)c(O)c2)oc2cc(O)cc(O)c12 [Quercetin 3-β-D-glucoside]
% Residual Activity [5]: 76.25%

NC(Cc1cc(O)c(O)cc1O)C(=O)O (racemic) [6-hydroxy-DL-DOPA]
attenuation of inhibition in the presence of detergent [11]: did not attenuate inhibition
mode of inhibition with respect to CTP [12]: competitive
mode of inhibition with respect to MEP [12]: noncompetitive
antibacterial activity in the quaternary screen [1]: failed to show significant antimicrobial activity

C[n+]1cc2c3c(ccc2c2ccc4cc5c(cc4c21)OCO5)OCO3 [Sanguinarine chloride, 13-Methyl-[1, 3]benzodioxolo[5,6-c]-1,3-dioxolo[4,5-i] phenanthridinium chloride]
aggregating / non-aggregating inhibitor [13]: aggregating inhibitor
dependence of IC50 on enzyme concentration [13]: decreases with a decrease in YpIspC concentration
antibacterial activity in the quaternary screen [1]: significantly inhibit bacterial growth

CCCc1c(-c2ccc(O)cc2)nn(-c2ccc(O)cc2)c1-c1ccc(O)cc1 [PPT, 1,3,5-tris(4-hydroxyphenyl)-4-propyl-1H-pyrazole]
hit identification in the primary screen with FtIspD [7]: identified as inhibitors of FtIspD
antibacterial activity in the quaternary screen [1]: significantly inhibit bacterial growth
remaining activity at 100 µM ([14]; read-out: residual activity of EcIspD in the secondary screen): 55%

Cc1ccc(C(=O)Nc2ccc(S(=O)(=O)O)c3cc(S(=O)(=O)O)cc(S(=O)(=O)O)c23)cc1NC(=O)c1cccc(NC(=O)Nc2cccc(C(=O)Nc3cc(C(=O)Nc4ccc(S(=O)(=O)O)c5cc(S(=O)(=O)O)cc(S(=O)(=O)O)c45)ccc3C)c2)c1 [Suramin Hexasodium]
aggregating / non-aggregating inhibitor [13]: non-aggregating
attenuation of inhibition in the presence of detergent [15]: did not attenuate inhibition
antibacterial activity in the quaternary screen [1]: failed to show significant antimicrobial activity

O=C1Nc2ccc(I)cc2C1=Cc1cc(Br)c(O)c(Br)c1 [GW5074, 3-(3,5-Dibromo-4-hydroxybenzylidine-5-iodo-1,3-dihydro-indol-2-one)]
hit identification in the primary screen with FtIspD [7]: identified as inhibitors of FtIspD
antibacterial activity in the quaternary screen [1]: significantly inhibit bacterial growth
residual activity of EcIspD in the secondary screen ([14]; secondary screen, 100 μM): 47%

COc1ccc2c(c[n+](C)c3c4cc5c(cc4ccc23)OCO5)c1OC.[Cl-] [chelerythrine chloride, 1,2-Dimethoxy-N-methyl(1,3) benzodioxolo(5,6-c)phenanthridinium chloride]
EC50 [4, 16]: > 100 µM
hit identification in the primary screen with YpIspC [5]: identified as inhibitors of IspC
antibacterial activity in the quaternary screen [1]: significantly inhibit bacterial growth

O=c1c(O[C@@H]2O[C@H](CO)[C@H](O)[C@H](O)[C@H]2O)c(-c2ccc(O)c(O)c2)oc2cc(O)cc(O)c12 [Quercetin 3-D-Galactoside]
% Residual Activity [5]: 76.779%

COc1cc(/C=C(\C#N)C(=O)c2ccc(O)c(O)c2)cc(I)c1O [I-OMe-Tyrphostin AG 538]
antibacterial activity in the quaternary screen [1]: failed to show significant antimicrobial activity

CC(=O)c1c(O)c(C)c(O)c(Cc2c(O)c3c(c(C(=O)C=Cc4ccccc4)c2O)OC(C)(C)C=C3)c1O [Rottlerin, 3′-[(8-Cinnamoyl-5,7-dihydroxy-2,2-dimethyl-2H-1-benzopyran-6-yl)methyl]-2′,4′,6′-trihydroxy-5′-methylacetophenone]
residual FtIspD activity in the primary screen [7]: 52%
antibacterial activity in the quaternary screen [1]: significantly inhibit bacterial growth
forming aggregates in solution [6]: forming aggregates in solution

O=C(O)C1=CC(=C(c2ccc(O)c(C(=O)O)c2)c2ccc(O)c(C(=O)O)c2)C=CC1=O [Aurintricarboxylic acid]
antibacterial activity in the quaternary screen [1]: failed to show significant antimicrobial activity

O.Oc1cc(O)c2c(c1)O[C@H](c1ccc(O)c(O)c1)[C@@H](O)C2 [Catechin]
% Residual Activity [5]: 96.65%
